Experimental data published in ChEMBL document CHEMBL4483862, “Open-source discovery of chemical leads for next-generation chemoprotective antimalarials” (2018).

Tested on: Plasmodium berghei
Experiment: Luciferase/luciferin-expressing antifolate-resistant parasites were used to infect a culture of HepG2 cells that were pre-incubated with compounds. Infected hepatocytes emit light due to the luciferase reaction. Assay results are presented as the percent inhibition of light emission compared to control. […]
Type: functional
Settings: sporozoite; for IC90: read-out: LUCIFERASE INFECTION ASSAY - IC90

SMILES | IC90 [µM] | further results
NC(Cc1ccc(F)cc1)c1csc(Nc2ncccn2)n1 (configuration not stated) | 4.09 | IC50 (HEPG2TOX_HILL_SLOPE 5.82, HEPG2TOX_R_SQUARED 0.311, PBLUC_HILL_SLOPE 16.5, PBLUC_R_SQUARED 0.556, read-out: LUCIFERASE INFECTION ASSAY - IC50): 3.58 µM
Cc1[nH]n(-c2cccc(C(F)(F)F)c2)c(=O)c1-c1cccc(Cl)c1 | > 9.36 | IC50 (HEPG2TOX_HILL_SLOPE 5.8, HEPG2TOX_R_SQUARED 0.928, PBLUC_HILL_SLOPE 3.11, PBLUC_R_SQUARED 0.843, read-out: LUCIFERASE INFECTION ASSAY - IC50): 6.26 µM
CCOC(=O)c1c(C)[nH]c(/C(C)=N/Nc2nc3ccccc3[nH]2)c1C | > 10 | IC50 (HEPG2TOX_HILL_SLOPE 6.05, HEPG2TOX_R_SQUARED 0.279, PBLUC_HILL_SLOPE 4.56, PBLUC_R_SQUARED 0.397, read-out: LUCIFERASE INFECTION ASSAY - IC50): 8.41 µM
Cc1ccc(C)c(-c2nn(C(C)C(=O)Nc3cc(C)on3)c(=O)c3ccccc23)c1 (configuration not stated) | 3.83 | IC50 (HEPG2TOX_HILL_SLOPE 5.97, HEPG2TOX_R_SQUARED 0.339, PBLUC_HILL_SLOPE 3.63, PBLUC_R_SQUARED 0.528, read-out: LUCIFERASE INFECTION ASSAY - IC50): 2.09 µM
CCOc1c(Cl)cc(C2CC(=O)N(Cc3ccccc3)c3nc4ccccc4n32)cc1OC (configuration not stated) | > 10 | IC50 (HEPG2TOX_HILL_SLOPE 5.74, HEPG2TOX_R_SQUARED 0.547, PBLUC_HILL_SLOPE 2.97, PBLUC_R_SQUARED 0.551, read-out: LUCIFERASE INFECTION ASSAY - IC50): 5.06 µM
O=C(CC(=O)Nc1ccc(Cl)cn1)Nc1ccc(Cl)c(Cl)c1 | 8.05 | IC50 (HEPG2TOX_HILL_SLOPE 5.65, HEPG2TOX_R_SQUARED 0.964, PBLUC_HILL_SLOPE 4.27, PBLUC_R_SQUARED 0.168, read-out: LUCIFERASE INFECTION ASSAY - IC50): 4.81 µM
O=C(NNC(=S)Nc1cccc(C(F)(F)F)c1)c1cccn1-c1ccc(F)cc1 | > 7.81 | IC50 (HEPG2TOX_HILL_SLOPE 5.96, HEPG2TOX_R_SQUARED 0.739, PBLUC_HILL_SLOPE 1.03, PBLUC_R_SQUARED 0.767, read-out: LUCIFERASE INFECTION ASSAY - IC50): > 7.81 µM
CCn1nnc2cc(C(=O)Nc3cccc(Cl)c3N3CCOCC3)ccc21 | > 10 | IC50 (HEPG2TOX_HILL_SLOPE 5.65, HEPG2TOX_R_SQUARED 0.159, PBLUC_HILL_SLOPE 1.72, PBLUC_R_SQUARED 0.0547, read-out: LUCIFERASE INFECTION ASSAY - IC50): 5.31 µM
COc1cc(OC)cc(-c2cnc3cnc(-c4ccc(CO)cc4)cn23)c1 | > 9.13 | IC50 (HEPG2TOX_HILL_SLOPE 5.84, HEPG2TOX_R_SQUARED 0.257, PBLUC_HILL_SLOPE 9, PBLUC_R_SQUARED 0.405, read-out: LUCIFERASE INFECTION ASSAY - IC50): 7.72 µM
C(=N\Nc1nc2ccccc2[nH]1)/c1sc(N2CCCCC2)nc1-c1cccs1 | > 10 | IC50 (HEPG2TOX_HILL_SLOPE 5.76, HEPG2TOX_R_SQUARED 0.476, PBLUC_HILL_SLOPE 1.87, PBLUC_R_SQUARED 0.581, read-out: LUCIFERASE INFECTION ASSAY - IC50): 6.38 µM
COc1ccc(-c2ccnc3n[nH]c(-c4ccc5c(c4)OCO5)c23)cc1OC | 4.36 | IC50 (HEPG2TOX_HILL_SLOPE 5.74, HEPG2TOX_R_SQUARED 0.837, PBLUC_HILL_SLOPE 9.49, PBLUC_R_SQUARED 0.381, read-out: LUCIFERASE INFECTION ASSAY - IC50): 3.46 µM
CC(C)(C)c1cc(C(=O)Nc2cc(-c3cccs3)nn2-c2ccc(F)cc2)n(Cc2ccccc2)n1 | > 6.61 | IC50 (HEPG2TOX_HILL_SLOPE 6.06, HEPG2TOX_R_SQUARED 0.212, read-out: LUCIFERASE INFECTION ASSAY - IC50): > 6.61 µM
Cc1sc2ncnc(NC(C)c3ccc(S(C)(=O)=O)cc3)c2c1C (configuration not stated) | > 10 | IC50 (HEPG2TOX_HILL_SLOPE 5.66, HEPG2TOX_R_SQUARED 0.483, PBLUC_HILL_SLOPE 1.68, PBLUC_R_SQUARED 0.334, read-out: LUCIFERASE INFECTION ASSAY - IC50): 6.13 µM
CNc1nc2cnc(Nc3cccc(Oc4ccccc4)c3)cc2n1-c1ccccc1 | > 10 | IC50 (HEPG2TOX_HILL_SLOPE 5.82, HEPG2TOX_R_SQUARED 0.501, PBLUC_HILL_SLOPE 8.19, PBLUC_R_SQUARED 0.453, read-out: LUCIFERASE INFECTION ASSAY - IC50): 8.37 µM
O=C(Nc1ccccc1)Nc1nc2ccc([N+](=O)[O-])cc2s1 | 7.31 | IC50 (HEPG2TOX_HILL_SLOPE 6.06, HEPG2TOX_R_SQUARED 0.204, PBLUC_HILL_SLOPE 4.24, PBLUC_R_SQUARED 0.473, read-out: LUCIFERASE INFECTION ASSAY - IC50): 4.36 µM
Cc1cccc(COc2cccc(C(=O)N3CCC(C(=O)NCc4ccccc4)CC3)c2)c1 | > 10 | IC50 (HEPG2TOX_HILL_SLOPE 5.74, HEPG2TOX_R_SQUARED 0.455, read-out: LUCIFERASE INFECTION ASSAY - IC50): > 10 µM

SMILES | IC90 [µM] | further results
COCCc1ccc(-c2csc(NC(=O)Cc3c[nH]c4ccccc34)n2)cc1 | > 10 | IC50 (HEPG2TOX_HILL_SLOPE 5.8, HEPG2TOX_R_SQUARED 0.844, read-out: LUCIFERASE INFECTION ASSAY - IC50): > 10 µM
CC1CCCN(C(=O)COc2ccc(-c3nc4ccccc4s3)cc2)C1 (configuration not stated) | > 10 | IC50 (HEPG2TOX_HILL_SLOPE 6.02, HEPG2TOX_R_SQUARED 0.809, PBLUC_HILL_SLOPE 2.74, PBLUC_R_SQUARED 0.285, read-out: LUCIFERASE INFECTION ASSAY - IC50): 6.51 µM
CCCNC(=O)c1c(NC(=O)c2ccc(F)cc2F)nc2ccc(C)cn12 | 3.51 | IC50 (HEPG2TOX_HILL_SLOPE 5.63, HEPG2TOX_R_SQUARED 0.519, PBLUC_HILL_SLOPE 14, PBLUC_R_SQUARED 0.432, read-out: LUCIFERASE INFECTION ASSAY - IC50): 2.99 µM
c1cncc(-c2nc(NCc3ccnc(N4CCCC4)c3)c3ccccc3n2)c1 | > 10 | IC50 (HEPG2TOX_HILL_SLOPE 5.98, HEPG2TOX_R_SQUARED 0.222, PBLUC_HILL_SLOPE 14.9, PBLUC_R_SQUARED 0.594, read-out: LUCIFERASE INFECTION ASSAY - IC50): 9.31 µM
CC(C)(C)c1cc2ncc(S(=O)(=O)c3ccc(Cl)cc3)c(N)n2n1 | > 9.04 | IC50 (HEPG2TOX_HILL_SLOPE 5.77, HEPG2TOX_R_SQUARED 0.0253, read-out: LUCIFERASE INFECTION ASSAY - IC50): > 9.04 µM
Cc1cccn2c(=O)cc(CN3C(=O)NC(C)(c4ccc(F)cc4)C3=O)nc12 (configuration not stated) | > 2 | IC50 (HEPG2TOX_HILL_SLOPE 5.95, HEPG2TOX_R_SQUARED 0.496, PBLUC_HILL_SLOPE 2.16, PBLUC_R_SQUARED 0.177, read-out: LUCIFERASE INFECTION ASSAY - IC50): 1.96 µM
COc1ccc(-c2cc(NC(=O)c3ccc(OCc4c(C)noc4C)cc3)ccc2OC)cc1 | > 10 | IC50 (HEPG2TOX_HILL_SLOPE 5.81, HEPG2TOX_R_SQUARED 0.572, PBLUC_HILL_SLOPE 1.68, PBLUC_R_SQUARED 0.219, read-out: LUCIFERASE INFECTION ASSAY - IC50): > 10 µM
O=C(Nc1ccc2nc(Cc3ccccc3)nn2c1)NC1CCCCC1 | 3.6 | IC50 (HEPG2TOX_HILL_SLOPE 5.83, HEPG2TOX_R_SQUARED 0.978, PBLUC_HILL_SLOPE 13.4, PBLUC_R_SQUARED 0.389, read-out: LUCIFERASE INFECTION ASSAY - IC50): 3.05 µM
O=C1C=C(c2ccccc2)C(=O)N1Nc1ccc(Cl)cc1Cl | > 9.9 | IC50 (HEPG2TOX_HILL_SLOPE 5.8, HEPG2TOX_R_SQUARED 0.44, PBLUC_HILL_SLOPE 7.31, PBLUC_R_SQUARED 0.6, read-out: LUCIFERASE INFECTION ASSAY - IC50): 9.05 µM
c1cnc2ccc(-c3cnc4cnc(-c5ccsc5)cn34)cc2c1 | > 10 | IC50 (HEPG2TOX_HILL_SLOPE 5.76, HEPG2TOX_R_SQUARED 0.0288, PBLUC_HILL_SLOPE 1.24, PBLUC_R_SQUARED 0.576, read-out: LUCIFERASE INFECTION ASSAY - IC50): 3.87 µM
CCOc1cc(/C=C(/C(=O)NCc2ccc(Cl)cc2)c2nc3ccccc3[nH]2)ccc1OC | > 10 | IC50 (HEPG2TOX_HILL_SLOPE 5.77, HEPG2TOX_R_SQUARED 0.35, PBLUC_HILL_SLOPE 0.685, PBLUC_R_SQUARED 0.126, read-out: LUCIFERASE INFECTION ASSAY - IC50): > 10 µM
CC(C)(C)c1cc(NC(=O)Cn2cnc3scc(-c4ccccc4)c3c2=O)on1 | > 10 | IC50 (HEPG2TOX_HILL_SLOPE 6.06, HEPG2TOX_R_SQUARED 0.374, PBLUC_HILL_SLOPE 1.95, PBLUC_R_SQUARED 0.0898, read-out: LUCIFERASE INFECTION ASSAY - IC50): > 10 µM
Cc1cc(NCc2cccc(C(F)(F)F)c2)nc(N)n1 | > 10 | IC50 (HEPG2TOX_HILL_SLOPE 5.66, HEPG2TOX_R_SQUARED 0.531, PBLUC_HILL_SLOPE 2.77, PBLUC_R_SQUARED 0.624, read-out: LUCIFERASE INFECTION ASSAY - IC50): 5.15 µM
CCOC(=O)c1c(C)[nH]c(C(=O)C(C)N2CCN(c3ccccc3O)CC2)c1C (configuration not stated) | > 10 | IC50 (HEPG2TOX_HILL_SLOPE 6.06, HEPG2TOX_R_SQUARED 0.507, PBLUC_HILL_SLOPE 4.15, PBLUC_R_SQUARED 0.577, read-out: LUCIFERASE INFECTION ASSAY - IC50): 7.31 µM
CCN(CC)CCNC(=O)c1c(C)oc2c1C(=O)c1ccccc1C2=O | 1.15 | IC50 (HEPG2TOX_HILL_SLOPE 5.67, HEPG2TOX_R_SQUARED 0.985, PBLUC_HILL_SLOPE 0.945, PBLUC_R_SQUARED 0.645, read-out: LUCIFERASE INFECTION ASSAY - IC50): 0.112 µM
